Measured values as given in patent publication US20110269680A1 (PANACEA BIOTEC LIMITED, priority 2008, published 2011).

Key:
db/db mice = test: Anti-diabetic activity of peptide in db/db mice; type: in vivo; conditions: 25 nmol/kg daily i.p., versus saline
Experimental: Animals of two different age groups (6-8 and 10-12 weeks old db/db mice) were included in this study. 6-8 week old mice were chosen as pre-diabetic mice and 10-12 week old as the full-diabetic mice. The preventive effect of peptide of Seq. ID No. 01 on the progression of diabetes in pre-diabetic mice was examined. The effect of peptide of Seq. ID No. 01 in full-diabetic mice was also studied. […] Blood glucose levels were measured on day 0, 14, 28 and 42. Test peptide of Seq ID No. 01 was injected i.p. according to body weight and the feed was removed. Mice were not fed till 4 hrs following injection of the peptide on the day of blood sample testing. Normal chow was given after the 4 hr time point. […] Test compound/vehicle (saline solution i.e. control negative) to be administered at 0 hr.

NEP 24.11 = target: T1, NEP 24.11 (Homo sapiens, UniProt P08473); test: NEP 24.11 resistant (degradation) assay; type: in vitro ADME; conditions: pH 7.4
T1 construct: purchased Calbiochem
T1 sequence (P08473 whole entry): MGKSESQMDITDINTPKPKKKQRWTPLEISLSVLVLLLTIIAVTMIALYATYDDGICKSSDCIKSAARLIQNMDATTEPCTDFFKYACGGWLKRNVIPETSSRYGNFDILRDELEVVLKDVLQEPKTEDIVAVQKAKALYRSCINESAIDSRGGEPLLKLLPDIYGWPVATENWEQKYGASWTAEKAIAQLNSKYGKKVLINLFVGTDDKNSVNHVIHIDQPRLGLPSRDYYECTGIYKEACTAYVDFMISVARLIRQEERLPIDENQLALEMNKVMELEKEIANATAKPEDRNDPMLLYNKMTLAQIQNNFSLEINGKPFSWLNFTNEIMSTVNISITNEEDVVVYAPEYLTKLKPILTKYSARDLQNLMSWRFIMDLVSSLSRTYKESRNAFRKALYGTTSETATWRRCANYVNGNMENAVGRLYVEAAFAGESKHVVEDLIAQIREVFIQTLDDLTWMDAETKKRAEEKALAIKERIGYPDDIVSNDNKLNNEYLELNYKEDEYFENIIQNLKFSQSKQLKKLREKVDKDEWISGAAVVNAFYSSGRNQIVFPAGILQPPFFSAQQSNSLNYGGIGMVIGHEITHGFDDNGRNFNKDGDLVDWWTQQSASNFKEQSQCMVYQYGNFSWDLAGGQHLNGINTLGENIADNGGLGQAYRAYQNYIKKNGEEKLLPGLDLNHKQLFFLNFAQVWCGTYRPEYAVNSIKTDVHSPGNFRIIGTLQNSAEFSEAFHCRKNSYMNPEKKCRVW
Experimental: The aliquots were analyzed for the amount of undegraded peptide concentration at different time intervals using RP-HPLC by peak area integration. T1/2 of each peptide was determined from the graph plotted between peak area of undegraded peptide vs time.

C57/BL6 male mice = test: OGTT and dose response effect of peptide of Seq ID No. 01; type: in vivo
Experimental: C57/BL6 male mice were fasted for 6 hrs. After 6 h of fasting, blood was drawn from a small tail clip for glucose level determination. […] Glucose was given orally at the ratio 1 mg/g body wt. per mouse 5 min after the administration of peptide. Blood glucose levels were determined at different time intervals i.e. at 0, 15, 30, 60, and 120 min during a period of 2 hours using a portable glucometer. The saline solution was used as control negative in the experiment.

DPP-IV = target: T2, DPP-IV (Homo sapiens, UniProt P27487); test: DPP-IV resistant assay; type: in vitro ADME
T2 construct: purchased Sigma-Aldrich
T2 sequence (P27487 whole entry, species assumed): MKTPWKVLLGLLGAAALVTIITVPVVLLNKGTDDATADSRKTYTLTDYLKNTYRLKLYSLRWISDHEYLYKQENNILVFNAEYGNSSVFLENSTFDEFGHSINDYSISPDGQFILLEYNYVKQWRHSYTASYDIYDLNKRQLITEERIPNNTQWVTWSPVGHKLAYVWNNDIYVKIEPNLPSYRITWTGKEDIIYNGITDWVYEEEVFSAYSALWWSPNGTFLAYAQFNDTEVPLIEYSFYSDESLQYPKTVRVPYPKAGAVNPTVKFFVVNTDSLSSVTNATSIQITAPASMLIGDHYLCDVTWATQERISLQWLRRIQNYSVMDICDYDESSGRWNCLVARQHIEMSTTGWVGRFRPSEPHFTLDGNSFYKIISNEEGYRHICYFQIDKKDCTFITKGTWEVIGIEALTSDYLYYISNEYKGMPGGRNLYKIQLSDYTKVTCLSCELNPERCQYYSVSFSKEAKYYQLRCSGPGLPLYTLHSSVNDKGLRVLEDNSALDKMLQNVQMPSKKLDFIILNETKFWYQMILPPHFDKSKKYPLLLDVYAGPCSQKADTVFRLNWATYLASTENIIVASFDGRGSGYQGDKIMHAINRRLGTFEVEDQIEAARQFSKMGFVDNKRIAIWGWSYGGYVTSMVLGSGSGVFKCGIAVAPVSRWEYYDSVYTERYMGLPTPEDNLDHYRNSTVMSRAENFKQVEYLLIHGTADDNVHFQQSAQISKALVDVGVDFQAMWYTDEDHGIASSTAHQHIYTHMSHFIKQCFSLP

half-life at 20 μM (NEP 24.11; buffer): 29 h | metabolised at 54 h, 20 μM (NEP 24.11; isolated enzyme neprilysin): 92.6% | Percentage degradation in hrs (DPP-IV): 25% | half-life at 20 μM (DPP-IV; pH 8): > 72 h
Compound: CC[C@H](C)[C@H](NC(=O)[C@H](Cc1ccccc1)NC(=O)[C@H](CCC(=O)O)NC(=O)[C@H](CCCCN)NC(=O)[C@H](C)NC(=O)[C@H](C)NC(=O)[C@H](CCC(N)=O)NC(=O)CNC(=O)[C@H](CCC(=O)O)NC(=O)[C@H](CC(C)C)NC(=O)[C@H](Cc1ccc(O)cc1)NC(=O)[C@H](CO)NC(=O)[C@H](CO)NC(=O)[C@@H](NC(=O)[C@H](CC(=O)O)NC(=O)[C@H](CO)NC(=O)[C@@H](NC(=O)[C@H](Cc1ccccc1)NC(=O)[C@@H](NC(=O)CNC(=O)[C@H](CCC(=O)O)NC(=O)c1ccc(CNC(=O)[C@@H](N)Cc2c[nH]cn2)o1)[C@@H](C)O)[C@@H](C)O)C(C)C)C(=O)N[C@@H](C)C(=O)N[C@@H](Cc1c[nH]c2ccccc12)C(=O)N[C@@H](CC(C)C)C(=O)N[C@H](C(=O)N[C@@H](CCCCN)C(=O)NCC(=O)N[C@@H](CCCNC(=N)N)C(=O)NCC(N)=O)C(C)C [Seq ID No. 01]
blood glucose level, progression of diabetes (db/db mice; 6-8 weeks old db/db mice, 42 days): delayed the progression of diabetes as compared to control negative group | blood glucose level, activity versus control negative (db/db mice; 10-12 weeks old db/db mice, 28 days): better activity as compared to control negative group | optimum dose (C57/BL6 male mice; OGTT dose response, intraperitoneally): 25 nmol/kg | dose response, percent reduction in blood glucose (AUC0-60) (C57/BL6 male mice; OGTT, 100, 25, 10, 5 and 1 nmol/kg intraperitoneally, FIG. 11): no significant difference between 100 nmol and 25 nmol doses
